Laboratory results published in article PMC9944328 (Nature Communications, 2023).
“And” between values parts separate entries of the source, which are not always exact repeats. Equal values may be shown once.

Molecular target: SSTR2 (Homo sapiens, UniProt P30874)
Experiment: NanoBiT β-arrestin 1 recruitment assay, HEK293 (SSTR2 wild-type);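 on Bottom (best-fit): percent of maximal wild-type response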;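 on Bottom: percent of maximal wild-type response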;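 on Span (best-fit value): percent of maximal wild-type response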;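 on Span (best-fit): percent of maximal wild-type response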;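 on Span: percent of maximal wild-type response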;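 on Top (best-fit value): percent of maximal wild-type response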;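 on Top (best-fit): percent of maximal wild-type response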;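 on Top: percent of maximal wild-type response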
Assay type: cell-based
Design: Human full-length SSTR wild-type and mutant vectors were C-terminally fused; expressed in transfected cells; host or cells: HEK293; Best-fit values Bottom / Best-fit values Top / Best-fit values Span / Best-fit Bottom / Best-fit Top / Best-fit Span: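 percent of maximal wild-type response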
Details: for Span (best-fit value) / Top (best-fit value): β-arrestin1 recruitment
Procedure: The NanoBiT β-arrestin 1 recruitment assays were carried out according to the method described previously. […] Human full-length SSTR wild-type and mutant vectors were C-terminally fused with a 15-amino acid flexible linker and the small fragment (SmBiT). HEK293 cells were seeded into six-well microplates at a density of 1.0 × 10^6 cells/well and cultured for 24 h at 37 °C with 5% CO2. After that, cells were co-transfected with pcDNA3.1+ vectors encoding SSTR wild-type or mutants and human β-arrestin 1. After transfecting for 24 h, the transfected cells were suspended and seeded into white 96-well plates, and then cultured at 37 °C overnight. After that the medium in each well was exchanged for 90 μl of 0.01% bovine serum albumin containing 20 μl of 50 μM coelenterazine h (Carbosynth) diluted in the HBSS assay buffer and incubated for 40 min at room temperature. Then, ligands diluted in the assay buffer was added to each well and the luminescence intensity was measured using the Synergy H1 microplate reader and detected at room temperature in a time period. All data presented are means of at least three independent experiments.

[1] = D122A set WT-3 = Q126A/Y205A set WT-2 = F208A set WT-3
[2] = F127A set WT-1 = I130A set WT-2
[3] = F127A set WT-3 = I130A set WT-1
[4] = Q126A/I130A set WT-3 = F127A set WT-2
[5] = SSTR2 WT-1 (run 1 of WT in the mutant's section)
[6] = SSTR2 WT-2 (run 2 of WT in the mutant's section)
[7] = SSTR2 WT-3 (run 3 of WT in the mutant's section)
[8] = best-fit value, WT-1 (run 1, WT of each mutant's batch)
[9] = best-fit value, WT-2 (run 2, WT of each mutant's batch)
[10] = best-fit value, WT-3 (run 3, WT of each mutant's batch)

SSTR2, sequence (P30874 whole entry): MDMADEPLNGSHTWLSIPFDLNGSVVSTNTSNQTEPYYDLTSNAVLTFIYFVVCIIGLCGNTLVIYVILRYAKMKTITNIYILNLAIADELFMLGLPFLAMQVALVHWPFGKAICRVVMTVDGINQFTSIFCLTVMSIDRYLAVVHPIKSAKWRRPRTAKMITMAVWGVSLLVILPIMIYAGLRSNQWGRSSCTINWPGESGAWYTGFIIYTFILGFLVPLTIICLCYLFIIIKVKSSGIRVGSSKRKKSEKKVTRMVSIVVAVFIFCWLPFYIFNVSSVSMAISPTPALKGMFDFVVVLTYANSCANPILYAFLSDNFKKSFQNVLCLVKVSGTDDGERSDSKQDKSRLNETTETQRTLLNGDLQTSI
SSTR2, sequence (P49407 whole entry partner): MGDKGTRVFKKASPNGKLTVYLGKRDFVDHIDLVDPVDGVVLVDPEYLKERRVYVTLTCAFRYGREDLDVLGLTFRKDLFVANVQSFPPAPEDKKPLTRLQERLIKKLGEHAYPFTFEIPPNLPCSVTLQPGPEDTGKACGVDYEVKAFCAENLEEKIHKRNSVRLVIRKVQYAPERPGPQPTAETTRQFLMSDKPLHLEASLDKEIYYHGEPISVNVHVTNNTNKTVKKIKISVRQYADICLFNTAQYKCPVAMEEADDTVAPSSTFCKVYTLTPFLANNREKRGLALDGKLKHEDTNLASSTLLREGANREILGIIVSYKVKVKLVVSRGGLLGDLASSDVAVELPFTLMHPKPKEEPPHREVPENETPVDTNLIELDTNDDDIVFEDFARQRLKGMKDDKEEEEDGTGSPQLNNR

C[C@@H](O)[C@@H]1NC(=O)[C@H](CCCCN)NC(=O)[C@@H](Cc2c[nH]c3ccccc23)NC(=O)[C@H](Cc2ccccc2)NC(=O)[C@@H](NC(=O)[C@H](N)Cc2ccccc2)CSSC[C@@H](C(=O)N[C@H](CO)[C@@H](C)O)NC1=O [octreotide]
Bottom (best-fit) (D122A set WT-1): 12.18
Span (best-fit) (D122A set WT-1): 93.68
Top (best-fit) (D122A set WT-1): 105.9
Bottom (best-fit) (D122A set WT-2): 4.265
Span (best-fit) (D122A set WT-2): 83.04
Top (best-fit) (D122A set WT-2): 87.31
Bottom (best-fit) [1]: -0.5169
Span (best-fit) [1]: 99.09
Top (best-fit) [1]: 98.58
Bottom (best-fit) [2]: -0.5804
Span (best-fit) [2]: 101.3
Top (best-fit) [2]: 100.7
Bottom (best-fit) [3]: -0.2332
Span (best-fit) [3]: 101
Top (best-fit) [3]: 100.8
Bottom (best-fit) (F208A set WT-1): -0.7342
Span (best-fit) (F208A set WT-1): 99.34
Top (best-fit) (F208A set WT-1): 98.6
Bottom (best-fit) (F208A set WT-2): -1.061
Span (best-fit) (F208A set WT-2): 99.77
Top (best-fit) (F208A set WT-2): 98.71
Emax (HEK293): 100%
Bottom (best-fit) (Q126A set WT-1): -2.277
Span (best-fit) (Q126A set WT-1): 105
Top (best-fit) (Q126A set WT-1): 102.7
Bottom (best-fit) [4]: 0.158
Span (best-fit) [4]: 100.8
Top (best-fit) [4]: 100.9
Span (best-fit value) [5]: 93.68 and 99.09 and 83.04 and 90.27 and 99.77
Top (best-fit value) [5]: 105.9 and 98.58 and 87.31 and 89.81 and 98.2
Span (best-fit value) [6]: 83.04 and 105 and 80.44 and 93.46 and 96.97
Top (best-fit value) [6]: 87.31 and 102.7 and 85.95 and 93.4 and 96.99
Span (best-fit value) [7]: 99.09 and 101.1 and 95.18 and 96.4
Top (best-fit value) [7]: 98.58 and 97.65 and 95.41 and 96.36
Best-fit values Bottom (WT-1 (F265A set)): 0.158
Best-fit values Span (WT-1 (F265A set)): 100.8
Best-fit values Top (WT-1 (F265A set)): 100.9
Best-fit values Bottom (WT-1 (F272A set)): 4.265
Best-fit values Span (WT-1 (F272A set)): 83.04
Best-fit values Top (WT-1 (F272A set)): 87.31
Best-fit values Bottom (WT-1 (K291A set)): 12.18
Best-fit values Bottom (WT-1 (N276A set)): 12.18
Best-fit values Span (WT-1 (N276A set)): 93.68
Best-fit values Top (WT-1 (N276A set)): 105.9
Best-fit values Bottom (WT-1 (P220A set)): 1.374
Best-fit values Span (WT-1 (P220A set)): 94.44
Best-fit values Top (WT-1 (P220A set)): 95.82
Best-fit values Bottom (WT-1 (W269A set)): -1.494
Best-fit values Span (WT-1 (W269A set)): 99.94
Best-fit values Top (WT-1 (W269A set)): 98.45
Best-fit values Bottom (WT-2 (F265A set)): -0.2332
Best-fit values Span (WT-2 (F265A set)): 101
Best-fit values Top (WT-2 (F265A set)): 100.8
Best-fit values Bottom (WT-2 (F272A set)): 12.18
Best-fit values Span (WT-2 (F272A set)): 93.68
Best-fit values Top (WT-2 (F272A set)): 105.9
Best-fit values Bottom (WT-2 (K291A set)): 4.265
Best-fit values Bottom (WT-2 (N276A set)): 4.265
Best-fit values Span (WT-2 (N276A set)): 83.04
Best-fit values Top (WT-2 (N276A set)): 87.31
Best-fit values Bottom (WT-2 (P220A set)): -0.5804
Best-fit values Span (WT-2 (P220A set)): 101.3
Best-fit values Top (WT-2 (P220A set)): 100.7
Best-fit values Bottom (WT-2 (W269A set)): 12.18
Best-fit values Span (WT-2 (W269A set)): 93.68
Best-fit values Top (WT-2 (W269A set)): 105.9
Best-fit values Bottom (WT-3 (F265A set)): -0.5804
Best-fit values Span (WT-3 (F265A set)): 101.3
Best-fit values Top (WT-3 (F265A set)): 100.7
Best-fit values Bottom (WT-3 (F272A set)): -0.5169
Best-fit values Span (WT-3 (F272A set)): 99.09
Best-fit values Top (WT-3 (F272A set)): 98.58
Best-fit values Bottom (WT-3 (K291A set)): -0.5169
Best-fit values Bottom (WT-3 (N276A set)): -0.5169
Best-fit values Span (WT-3 (N276A set)): 99.09
Best-fit values Top (WT-3 (N276A set)): 98.58
Best-fit values Bottom (WT-3 (P220A set)): -0.2332
Best-fit values Span (WT-3 (P220A set)): 101
Best-fit values Top (WT-3 (P220A set)): 100.8
Best-fit values Bottom (WT-3 (W269A set)): 6.264
Best-fit values Span (WT-3 (W269A set)): 85.81
Best-fit values Top (WT-3 (W269A set)): 92.07
Bottom (best-fit) (Y205A set WT-1): -3.442
Span (best-fit) (Y205A set WT-1): 101.1
Top (best-fit) (Y205A set WT-1): 97.65
Bottom (best-fit) (Y205A set WT-3): 2.142
Span (best-fit) (Y205A set WT-3): 104.5
Top (best-fit) (Y205A set WT-3): 106.6
Span [8]: 99.09 and 101 and 68.4
Top [8]: 98.58 and 100.8 and 104.3
Span [9]: 99.09 and 99.34 and 102.9 and 105
Top [9]: 98.58 and 98.6 and 97.73 and 102.7
Span [10]: 99.09 and 99.77 and 100.8 and 101.1
Top [10]: 98.58 and 98.71 and 100.9 and 97.65
Bottom (best-fit, WT-1 (I284A batch)): 12.18
Span (best-fit, WT-1 (I284A batch)): 93.68
Top (best-fit, WT-1 (I284A batch)): 105.9
Bottom (best-fit, WT-1 (P286A batch)): 5.515
Span (best-fit, WT-1 (P286A batch)): 80.44
Top (best-fit, WT-1 (P286A batch)): 85.95
Bottom (best-fit, WT-1 (S285A batch)): 6.264
Span (best-fit, WT-1 (S285A batch)): 85.81
Top (best-fit, WT-1 (S285A batch)): 92.07
Bottom (best-fit, WT-1 (T194A batch)): -0.5169
Top (best-fit, WT-1 (T194A batch)): 98.58
Bottom (best-fit, WT-1 (T287A batch)): 4.265
Span (best-fit, WT-1 (T287A batch)): 83.04
Top (best-fit, WT-1 (T287A batch)): 87.31
Bottom (best-fit, WT-1 (W188A batch)): 6.264
Span (best-fit, WT-1 (W188A batch)): 85.81
Top (best-fit, WT-1 (W188A batch)): 92.07
Bottom (best-fit, WT-2 (I284A batch)): -1.639
Span (best-fit, WT-2 (I284A batch)): 102.1
Top (best-fit, WT-2 (I284A batch)): 100.5
Bottom (best-fit, WT-2 (P286A batch)): 4.265
Span (best-fit, WT-2 (P286A batch)): 83.04
Top (best-fit, WT-2 (P286A batch)): 87.31
Bottom (best-fit, WT-2 (S285A batch)): 12.18
Span (best-fit, WT-2 (S285A batch)): 93.68
Top (best-fit, WT-2 (S285A batch)): 105.9
Bottom (best-fit, WT-2 (T194A batch)): -0.7342
Top (best-fit, WT-2 (T194A batch)): 98.6
Bottom (best-fit, WT-2 (T287A batch)): 5.515
Span (best-fit, WT-2 (T287A batch)): 80.44
Top (best-fit, WT-2 (T287A batch)): 85.95
Bottom (best-fit, WT-2 (W188A batch)): -0.5169
Span (best-fit, WT-2 (W188A batch)): 99.09
Top (best-fit, WT-2 (W188A batch)): 98.58
Bottom (best-fit, WT-3 (I284A batch)): 6.264
Span (best-fit, WT-3 (I284A batch)): 85.81
Top (best-fit, WT-3 (I284A batch)): 92.07
Bottom (best-fit, WT-3 (P286A batch)): 4.265
Span (best-fit, WT-3 (P286A batch)): 83.04
Top (best-fit, WT-3 (P286A batch)): 87.31
Bottom (best-fit, WT-3 (S285A batch)): 4.265
Span (best-fit, WT-3 (S285A batch)): 83.04
Top (best-fit, WT-3 (S285A batch)): 87.31
Bottom (best-fit, WT-3 (T194A batch)): -1.061
Top (best-fit, WT-3 (T194A batch)): 98.71
Bottom (best-fit, WT-3 (T287A batch)): -0.5169
Span (best-fit, WT-3 (T287A batch)): 99.09
Top (best-fit, WT-3 (T287A batch)): 98.58
Bottom (best-fit, WT-3 (W188A batch)): 12.18
Span (best-fit, WT-3 (W188A batch)): 93.68
Top (best-fit, WT-3 (W188A batch)): 105.9
